{"source": "paper PMC11251039", "about": "“Harnessing cholesterol uptake of malaria parasites for therapeutic applications” (EMBO Molecular Medicine, 2024)", "key": {"[1]": {"system": "asexual P. falciparum 3D7 wild-type parasites", "assay": "P. falciparum asexual growth inhibition assay (SYBR Safe DNA replication)", "type": "cell-based, Plasmodium falciparum", "conditions": "for P. falciparum asexual growth, percentage of control: replicate values, source data Fig. 2B, listed as BC5B; for IC90 / IC50: Plasmodium falciparum; for IC50: read-out: IC50, P. falciparum asexual growth inhibition", "method_in_brief": "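Sorbitol-synchronised ring-stage cultures at 1% parasitaemia and 1% haematocrit were exposed to 2-fold compound dilutions at 37 °C under microaerophilic conditions for 24, 48 or 72 h. Growth was read by SYBR Safe fluorescence of freeze-thaw lysates, with 200 nM chloroquine or artesunate defining background.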"}, "[2]": {"system": "P. berghei liver stage parasites", "assay": "P. berghei liver stage parasite size and number (fluorescence microscopy, coverslips)", "type": "cell-based, Plasmodium berghei", "conditions": "48 h", "experimental": "Uninfected wells served as a control for background luminescence. […] No other manipulations were performed.\nAppendix Fraser/Curtis et al.\nFor measurement of parasite size and number, 20,000 Huh7 cells were seeded onto collagen-coated coverslips on the day prior to infection. As above, 10,000 – 20,000 sporozoites were added per slide, allowed to invade for 60 minutes after centrifugation, and then incubated for […]\nInfected cells were fixed with 3% paraformaldehyde in PBS, permeabilized with 0.3% v/v Triton X-100, and labelled with 1:1,000 polyclonal chicken anti-GFP (Abcam ab13970), 1:2,000 goat anti-chicken Alexa […]\nintrinsic GFP fluorescence could be detected, as well as Fluoromount-G® containing 4′,6-diamidino-2-phenylindole (DAPI; Southern Biotech), to stain parasite and host cell nuclei.\nImages were collected on a Zeiss Axio Observer Z2 microscope with a Zeiss AxioCam MRm at 200× or 400× (for quantification) or 630× (for cell images) magnification, with a resolution of […], 163 nm or 102 nm per pixel respectively. Alexa Fluor™ 546 fluorescence was detected at 546/13 nm excitation and 675/35 nm emission. […]\nfluorescence was detected at 470/20 nm excitation and 525/25 nm emission. DAPI fluorescence (nucleic acid) was detected at 359/24 nm ex and 445/25 nm em. For quantification, all cells on each coverslip were imaged under the same settings for each experiment. P. berghei liver stage size was measured as described (24) using Fiji ImageJ (25). Liver-stage parasites were identified and delineated in fluorescent images using defined threshold levels, and the identified fluorescent areas were used to measure parasite area. The number of parasites on each coverslip was also counted. […]\nmanipulations were performed."}, "[3]": {"assay": "Human hepatoma viability assay (CellTiter-Blue)", "type": "cell-based", "conditions": "human, replicate data points, read-out: Huh7 viability, dose-response data points (Figure 3F)", "method_in_brief": "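Huh7 cells (10,000/well) were seeded and treated the next day with serially diluted compound or DMSO, with media partially renewed with fresh dilutions over two days.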"}}, "note": "Where “and” joins values, the source holds several entries; their conditions need not be identical. Identical values can stand only once. Like-named read-outs stand apart in the source and are kept apart here."}
{"smiles": "COc1cc(NC(C)CCCNC(=O)CCC(=O)O[C@H]2CC[C@H]3[C@@H]4CC=C5C[C@@H](O)CC[C@]5(C)[C@H]4CC[C@]23C)c2ncccc2c1", "note": "(stereo partly shown) [C-17-PQ]", "values": [{"measurement": "Fold lower IC50 than primaquine alone", "setting": "[1]", "result": "~ 4 fold"}, {"measurement": "P. falciparum asexual growth, percentage of control", "setting": "[1]; 0.154296880 uM, 24 h", "result": "115.9% and 112.2% and 101.3% and 107.1% and 95.84% and 88.53% and 98.99% and 116.6% and 76.11%"}, {"measurement": "P. falciparum asexual growth, percentage of control", "setting": "[1]; 0.308593750 uM, 24 h", "result": "125.5% and 115.5% and 91.68% and 117.9% and 88.81% and 84.79% and 114.9% and 109.1% and 95.02%"}, {"measurement": "P. falciparum asexual growth, percentage of control", "setting": "[1]; 0.617187500 uM, 24 h", "result": "131.7% and 113.6% and 103% and 85.01% and 97.93% and 83.36% and 109% and 162.3% and 97.26%"}, {"measurement": "P. falciparum asexual growth, percentage of control", "setting": "[1]; 1.234375000 uM, 24 h", "result": "120.1% and 114.6% and 99.7% and 107.3% and 77.37% and 93.38% and 101.7% and 96.22% and 102.4%"}, {"measurement": "P. falciparum asexual growth, percentage of control", "setting": "[1]; 2.468750000 uM, 24 h", "result": "89.52% and 83.68% and 69.39% and 87.34% and 56.13% and 47.54% and 76.36% and 68.29% and 79.29%"}, {"measurement": "P. falciparum asexual growth, percentage of control", "setting": "[1]; 4.937500000 uM, 24 h", "result": "14.72% and 24.05% and 6.418% and 5.536% and -2.79% and -3.361% and 18.05% and 30.2% and 18.39%"}, {"measurement": "P. falciparum asexual growth, percentage of control", "setting": "[1]; 9.875000000 uM, 24 h", "result": "13.15% and 2.413% and -18.71% and -3.317% and -20.54% and -27.66% and -1.156% and -7.164% and -20.57%"}, {"measurement": "P. falciparum asexual growth, percentage of control", "setting": "[1]; 19.750000000 uM, 24 h", "result": "-9.926% and -19.32% and -11.56% and 3.097% and -3.493% and -18.72% and 17.43% and -16.64% and -32.93%"}, {"measurement": "Fold difference in IC90 to primaquine", "setting": "[1]; 24 h", "result": "~ 8 fold"}, {"measurement": "Hill slope of inhibitory curve", "setting": "[1]; 24 h", "result": "−4.56"}, {"measurement": "Hill slope of inhibitory curve", "setting": "[1]; 72 h", "result": "−4.20"}, {"measurement": "IC90", "setting": "[1]; 3D7, 24 h", "result": 5, "unit": "µM"}, {"measurement": "IC50", "setting": "[1]; 3D7, 24 h, 24 h, starting at ring stages", "result": 3.1, "unit": "µM"}, {"measurement": "IC50", "setting": "[1]; 3D7, 48 h, 48 h", "result": 3, "unit": "µM"}, {"measurement": "IC90", "setting": "[1]; 3D7, 72 h", "result": 4, "unit": "µM"}, {"measurement": "IC50", "setting": "[1]; 3D7, 72 h, 72 h", "result": 2.4, "unit": "µM"}, {"measurement": "Reduction of parasite size (area) compared to untreated parasites", "setting": "[2]; 0.3 µM", "result": 48, "unit": "%"}, {"measurement": "Normalised mean size of liver stage parasites, percentage of the solvent control", "setting": "[2]; 0.3 μM, per coverslip, source data Fig. 3C, listed as BC5B", "result": "47.88% and 39.55% and 51.73% and 68.26% and 63.53% and 38.56%"}, {"measurement": "Reduction of parasite size (area) compared to untreated parasites", "setting": "[2]; 3 µM", "result": 90, "unit": "%"}, {"measurement": "Parasite number per coverslip compared to the same concentration of primaquine", "setting": "[2]; 0.3 or 3 µM", "result": "significantly lower"}, {"measurement": "viability at 48 h, 0.0152416 µM", "setting": "[3]; 0.015241580 uM", "result": 94.8, "unit": "%"}, {"measurement": "viability at 48 h, 0.0457247 µM", "setting": "[3]; 0.045724740 uM", "result": 94.9, "unit": "%"}, {"measurement": "viability at 48 h, 0.137174 µM", "setting": "[3]; 0.137174210 uM", "result": 95.3, "unit": "%"}, {"measurement": "viability at 48 h, 0.411523 µM", "setting": "[3]; 0.411522630 uM", "result": 94.5, "unit": "%"}]}
